Results reported in ChEMBL document CHEMBL1201862, “PubChem BioAssay data set” (2004).
Activity calls are given as the source filed them.

Columns and labels:
Type in all cases: functional
[1] = molecular target: Ribosomal protein S6 kinase alpha-3 (Homo sapiens, UniProt P51812);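 also: measured within a kinome-wide profiling panel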
[2] = molecular target: Phosphorylase b kinase gamma catalytic chain, liver/testis isoform (Homo sapiens, UniProt P15735);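 also: PHKG2 measured as one member of a kinome-wide kinase panel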
[3] = molecular target: Serine/threonine-protein kinase PLK3 (Homo sapiens, UniProt Q9H4B4)
[4] = molecular target: ALK tyrosine kinase receptor (Homo sapiens, UniProt Q9UM73);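 also: ALK tested as one member of a kinase panel screen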
[5] = molecular target: Death-associated protein kinase 3 (Homo sapiens, UniProt O43293);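 also: measured as one member of a kinome-wide profiling panel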
[6] = molecular target: Mitogen-activated protein kinase 8 (Homo sapiens, UniProt P45983);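 also: value comes from one member of a kinome-wide kinase profiling panel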
[7] = molecular target: MAP kinase-activated protein kinase 2 (Homo sapiens, UniProt P49137);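 also: measured as one member of a kinome-wide kinase panel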
[8] = molecular target: Tyrosine-protein kinase BTK (Homo sapiens, UniProt Q06187)
[9] = molecular target: Serine/threonine-protein kinase PAK 4 (Homo sapiens, UniProt O96013);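 also: value obtained within a kinome profiling panel in which PAK4 was one of the panel members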
[10] = molecular target: Casein kinase I isoform gamma-1 (Homo sapiens, UniProt Q9HCP0);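 also: measured as the CSNK1G1 member of a kinome profiling panel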
[11] = molecular target: Mitogen-activated protein kinase 9 (Homo sapiens, UniProt P45984);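 also: value from a kinome panel profiling assay, MAPK9 panel entry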
[12] = molecular target: T1, Dual specificity tyrosine-phosphorylation-regulated kinase 3 (Homo sapiens, UniProt O43781);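 also: measured as one member of a broad kinase panel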
T1 sequence (O43781 whole entry): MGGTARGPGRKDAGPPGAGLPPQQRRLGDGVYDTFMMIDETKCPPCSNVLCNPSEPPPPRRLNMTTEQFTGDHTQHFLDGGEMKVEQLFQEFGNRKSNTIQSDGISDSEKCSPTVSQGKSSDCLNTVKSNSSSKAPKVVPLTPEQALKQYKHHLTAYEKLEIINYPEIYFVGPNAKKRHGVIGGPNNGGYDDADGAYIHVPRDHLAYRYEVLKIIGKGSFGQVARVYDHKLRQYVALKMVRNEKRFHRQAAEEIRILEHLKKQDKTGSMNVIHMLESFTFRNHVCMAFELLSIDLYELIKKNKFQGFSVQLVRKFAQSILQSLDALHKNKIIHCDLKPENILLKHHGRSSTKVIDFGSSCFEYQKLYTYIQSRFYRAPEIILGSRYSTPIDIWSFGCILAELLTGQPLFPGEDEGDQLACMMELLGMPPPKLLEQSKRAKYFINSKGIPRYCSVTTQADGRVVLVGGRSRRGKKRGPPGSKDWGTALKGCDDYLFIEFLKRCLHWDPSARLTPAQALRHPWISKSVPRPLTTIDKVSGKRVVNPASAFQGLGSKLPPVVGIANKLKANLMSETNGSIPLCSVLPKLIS

[13] = molecular target: Hepatocyte growth factor receptor (Homo sapiens, UniProt P08581);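 also: kinase panel profiling across the kinome, with MET as the panel member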
[14] = molecular target: Receptor tyrosine-protein kinase erbB-2 (Homo sapiens, UniProt P04626); assay: Navigating the Kinome. Panel member name: ERBB2
[15] = molecular target: MAP kinase-activated protein kinase 3 (Homo sapiens, UniProt Q16644);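 also: value comes from a kinome-wide profiling panel in which MAPKAPK3 is one of the panel members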
[16] = molecular target: Interleukin-1 receptor-associated kinase 1 (Homo sapiens, UniProt P51617);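 also: IRAK1 tested as one member of a kinome panel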
[17] = molecular target: Maternal embryonic leucine zipper kinase (Homo sapiens, UniProt Q14680)
[18] = molecular target: Mitogen-activated protein kinase kinase kinase kinase 5 (Homo sapiens, UniProt Q9Y4K4);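 also: measured as one member of a kinome-spanning kinase panel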
[19] = molecular target: Tyrosine-protein kinase Fer (Homo sapiens, UniProt P16591);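 also: FER tested as one member of a kinome panel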
[20] = molecular target: Vascular endothelial growth factor receptor 1 (Homo sapiens, UniProt P17948);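 also: measured within a kinome-wide profiling panel, FLT1 as the panel member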
[21] = molecular target: STE20-like serine/threonine-protein kinase (Homo sapiens, UniProt Q9H2G2)
[22] = molecular target: Glycogen synthase kinase-3 beta (Homo sapiens, UniProt P49841);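 also: value comes from a broad kinome profiling panel, with GSK3B as the panel member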
[23] = molecular target: Receptor tyrosine-protein kinase erbB-4 (Homo sapiens, UniProt Q15303);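 also: ERBB4 member of a kinome-wide kinase profiling panel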
[24] = molecular target: Lymphokine-activated killer T-cell-originated protein kinase (Homo sapiens, UniProt Q96KB5);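 also: value comes from a kinase panel screen in which TOPK was one of the panel members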
[25] = molecular target: T2, Serine/threonine-protein kinase BRSK1 (Homo sapiens, UniProt Q8TDC3);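 also: measured within a kinome-wide kinase panel, with the target listed as KIAA1811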
T2 sequence (Q8TDC3 whole entry): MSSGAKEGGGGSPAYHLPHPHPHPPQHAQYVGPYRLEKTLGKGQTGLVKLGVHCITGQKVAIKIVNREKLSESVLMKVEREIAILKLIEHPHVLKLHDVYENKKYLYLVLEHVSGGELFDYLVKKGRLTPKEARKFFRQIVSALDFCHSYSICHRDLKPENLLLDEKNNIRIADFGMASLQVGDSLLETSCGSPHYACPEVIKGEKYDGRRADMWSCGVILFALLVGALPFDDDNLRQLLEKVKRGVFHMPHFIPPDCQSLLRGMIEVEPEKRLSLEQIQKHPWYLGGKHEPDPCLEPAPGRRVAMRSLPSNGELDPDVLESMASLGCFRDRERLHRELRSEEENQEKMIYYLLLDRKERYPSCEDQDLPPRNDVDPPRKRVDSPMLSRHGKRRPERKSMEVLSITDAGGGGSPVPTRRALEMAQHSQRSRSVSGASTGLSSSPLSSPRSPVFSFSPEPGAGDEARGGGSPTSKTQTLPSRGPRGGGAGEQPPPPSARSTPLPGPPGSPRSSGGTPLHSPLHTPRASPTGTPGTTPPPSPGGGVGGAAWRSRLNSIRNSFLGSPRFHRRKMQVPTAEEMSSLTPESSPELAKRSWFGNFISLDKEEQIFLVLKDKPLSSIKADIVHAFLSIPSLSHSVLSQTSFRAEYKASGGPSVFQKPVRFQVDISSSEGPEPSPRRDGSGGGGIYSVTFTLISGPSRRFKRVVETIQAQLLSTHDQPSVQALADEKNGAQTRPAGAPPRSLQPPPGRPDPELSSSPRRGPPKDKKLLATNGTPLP

[26] = molecular target: Serine/threonine-protein kinase D3 (Homo sapiens, UniProt O94806);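 also: determined within a kinase panel screen, with PRKCN as the panel member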

Interleukin-1 receptor-associated kinase 1, sequence (P51617 whole entry): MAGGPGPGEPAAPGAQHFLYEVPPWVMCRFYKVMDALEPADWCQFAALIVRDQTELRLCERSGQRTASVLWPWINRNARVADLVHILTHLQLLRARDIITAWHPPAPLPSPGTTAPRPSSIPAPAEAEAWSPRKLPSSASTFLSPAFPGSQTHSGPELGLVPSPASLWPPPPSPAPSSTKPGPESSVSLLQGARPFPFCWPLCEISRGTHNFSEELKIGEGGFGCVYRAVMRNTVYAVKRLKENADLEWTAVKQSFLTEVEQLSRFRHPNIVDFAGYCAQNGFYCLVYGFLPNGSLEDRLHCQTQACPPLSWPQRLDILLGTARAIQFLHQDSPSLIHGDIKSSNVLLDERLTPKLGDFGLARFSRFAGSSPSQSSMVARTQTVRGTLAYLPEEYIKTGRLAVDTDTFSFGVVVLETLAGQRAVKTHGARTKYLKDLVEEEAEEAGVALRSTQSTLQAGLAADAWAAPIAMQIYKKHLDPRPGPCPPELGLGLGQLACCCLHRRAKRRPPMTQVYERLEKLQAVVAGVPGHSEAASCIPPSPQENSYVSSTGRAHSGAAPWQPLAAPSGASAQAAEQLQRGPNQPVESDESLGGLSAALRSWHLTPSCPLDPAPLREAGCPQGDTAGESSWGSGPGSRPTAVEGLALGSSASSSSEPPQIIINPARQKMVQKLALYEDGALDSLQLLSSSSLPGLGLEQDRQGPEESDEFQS
Casein kinase I isoform gamma-1, sequence (Q9HCP0 whole entry, canonical isoform): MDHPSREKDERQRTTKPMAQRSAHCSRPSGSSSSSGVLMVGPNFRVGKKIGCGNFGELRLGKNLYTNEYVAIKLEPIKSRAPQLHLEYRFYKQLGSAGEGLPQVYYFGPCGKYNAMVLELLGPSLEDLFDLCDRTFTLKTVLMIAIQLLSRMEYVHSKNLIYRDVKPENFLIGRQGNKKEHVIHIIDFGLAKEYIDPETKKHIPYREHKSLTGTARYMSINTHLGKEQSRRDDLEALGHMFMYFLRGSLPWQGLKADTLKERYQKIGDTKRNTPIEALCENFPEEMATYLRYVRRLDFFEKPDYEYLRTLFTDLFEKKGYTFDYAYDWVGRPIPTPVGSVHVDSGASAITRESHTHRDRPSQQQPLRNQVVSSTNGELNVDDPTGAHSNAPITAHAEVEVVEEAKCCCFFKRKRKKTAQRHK
Death-associated protein kinase 3, sequence (O43293 whole entry): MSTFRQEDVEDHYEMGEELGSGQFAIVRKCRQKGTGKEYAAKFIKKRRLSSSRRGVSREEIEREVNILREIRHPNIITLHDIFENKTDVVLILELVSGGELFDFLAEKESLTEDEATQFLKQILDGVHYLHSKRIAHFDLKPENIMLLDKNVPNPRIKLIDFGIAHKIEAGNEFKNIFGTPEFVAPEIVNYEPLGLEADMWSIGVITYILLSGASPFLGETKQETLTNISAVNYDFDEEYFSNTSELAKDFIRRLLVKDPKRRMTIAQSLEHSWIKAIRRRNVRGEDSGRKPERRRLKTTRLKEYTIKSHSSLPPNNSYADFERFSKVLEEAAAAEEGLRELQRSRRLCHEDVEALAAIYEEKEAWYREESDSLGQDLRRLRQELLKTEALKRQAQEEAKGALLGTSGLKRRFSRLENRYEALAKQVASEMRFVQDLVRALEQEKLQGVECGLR
Glycogen synthase kinase-3 beta, sequence (P49841 whole entry): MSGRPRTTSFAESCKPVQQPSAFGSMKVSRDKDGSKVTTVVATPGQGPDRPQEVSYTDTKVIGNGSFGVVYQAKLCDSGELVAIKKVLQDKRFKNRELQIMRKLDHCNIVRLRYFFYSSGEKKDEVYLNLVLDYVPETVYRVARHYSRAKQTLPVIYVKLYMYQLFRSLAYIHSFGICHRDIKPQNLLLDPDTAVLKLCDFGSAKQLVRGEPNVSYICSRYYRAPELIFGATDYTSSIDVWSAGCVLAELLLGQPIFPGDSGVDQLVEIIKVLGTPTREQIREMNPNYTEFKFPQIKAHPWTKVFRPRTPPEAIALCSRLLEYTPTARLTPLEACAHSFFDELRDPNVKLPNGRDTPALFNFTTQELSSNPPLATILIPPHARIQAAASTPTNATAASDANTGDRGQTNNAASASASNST
Ribosomal protein S6 kinase alpha-3, sequence (P51812 whole entry, canonical isoform): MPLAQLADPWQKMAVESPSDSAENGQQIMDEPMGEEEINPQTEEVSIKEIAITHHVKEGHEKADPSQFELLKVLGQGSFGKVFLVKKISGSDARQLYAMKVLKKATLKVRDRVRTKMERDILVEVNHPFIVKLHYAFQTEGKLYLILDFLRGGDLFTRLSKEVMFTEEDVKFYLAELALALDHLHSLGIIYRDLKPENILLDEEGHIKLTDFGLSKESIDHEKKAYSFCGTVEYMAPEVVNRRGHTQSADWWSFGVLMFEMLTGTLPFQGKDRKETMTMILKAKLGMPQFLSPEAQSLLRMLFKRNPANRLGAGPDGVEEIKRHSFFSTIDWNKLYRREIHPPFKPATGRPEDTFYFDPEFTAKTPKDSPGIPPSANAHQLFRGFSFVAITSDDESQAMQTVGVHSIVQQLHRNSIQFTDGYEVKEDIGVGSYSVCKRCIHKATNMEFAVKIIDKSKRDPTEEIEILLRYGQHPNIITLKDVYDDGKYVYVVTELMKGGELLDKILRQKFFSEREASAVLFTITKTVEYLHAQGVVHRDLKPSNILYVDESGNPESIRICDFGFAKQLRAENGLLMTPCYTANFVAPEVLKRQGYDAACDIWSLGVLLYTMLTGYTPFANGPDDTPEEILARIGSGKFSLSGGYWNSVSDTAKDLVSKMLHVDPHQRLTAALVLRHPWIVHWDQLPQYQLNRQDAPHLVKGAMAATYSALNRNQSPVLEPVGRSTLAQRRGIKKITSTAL
STE20-like serine/threonine-protein kinase, sequence (Q9H2G2 whole entry): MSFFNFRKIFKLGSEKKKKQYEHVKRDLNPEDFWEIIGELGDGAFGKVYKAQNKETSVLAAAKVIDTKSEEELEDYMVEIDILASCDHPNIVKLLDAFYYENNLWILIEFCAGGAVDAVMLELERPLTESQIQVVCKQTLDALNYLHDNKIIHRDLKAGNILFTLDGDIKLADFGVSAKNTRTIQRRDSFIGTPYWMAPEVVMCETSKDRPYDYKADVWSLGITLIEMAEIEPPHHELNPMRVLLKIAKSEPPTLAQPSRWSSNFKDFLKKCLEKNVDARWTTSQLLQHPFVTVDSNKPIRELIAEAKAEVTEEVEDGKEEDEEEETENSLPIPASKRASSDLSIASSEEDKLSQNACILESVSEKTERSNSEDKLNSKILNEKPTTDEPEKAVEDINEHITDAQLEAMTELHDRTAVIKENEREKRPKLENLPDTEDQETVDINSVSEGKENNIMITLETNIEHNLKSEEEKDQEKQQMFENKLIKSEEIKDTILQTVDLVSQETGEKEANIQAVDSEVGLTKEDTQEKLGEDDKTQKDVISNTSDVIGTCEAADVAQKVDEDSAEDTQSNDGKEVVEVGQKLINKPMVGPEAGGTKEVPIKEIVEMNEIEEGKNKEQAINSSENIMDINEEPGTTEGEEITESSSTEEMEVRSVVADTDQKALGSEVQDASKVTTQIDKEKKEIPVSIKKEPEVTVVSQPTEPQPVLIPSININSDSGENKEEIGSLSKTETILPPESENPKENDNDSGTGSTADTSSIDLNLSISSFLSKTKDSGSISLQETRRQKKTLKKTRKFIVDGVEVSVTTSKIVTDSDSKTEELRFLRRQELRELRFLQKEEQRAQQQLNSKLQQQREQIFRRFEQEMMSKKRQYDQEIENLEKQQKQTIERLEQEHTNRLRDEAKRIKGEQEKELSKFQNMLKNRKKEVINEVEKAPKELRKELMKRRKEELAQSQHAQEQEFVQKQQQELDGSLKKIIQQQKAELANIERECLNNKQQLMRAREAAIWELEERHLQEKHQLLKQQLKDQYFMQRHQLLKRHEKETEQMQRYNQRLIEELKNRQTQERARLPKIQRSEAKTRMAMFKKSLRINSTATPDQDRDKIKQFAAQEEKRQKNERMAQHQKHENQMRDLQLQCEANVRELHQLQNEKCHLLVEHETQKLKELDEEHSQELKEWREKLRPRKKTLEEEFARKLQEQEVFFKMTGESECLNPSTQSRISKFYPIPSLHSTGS
Mitogen-activated protein kinase 9, sequence (P45984 whole entry): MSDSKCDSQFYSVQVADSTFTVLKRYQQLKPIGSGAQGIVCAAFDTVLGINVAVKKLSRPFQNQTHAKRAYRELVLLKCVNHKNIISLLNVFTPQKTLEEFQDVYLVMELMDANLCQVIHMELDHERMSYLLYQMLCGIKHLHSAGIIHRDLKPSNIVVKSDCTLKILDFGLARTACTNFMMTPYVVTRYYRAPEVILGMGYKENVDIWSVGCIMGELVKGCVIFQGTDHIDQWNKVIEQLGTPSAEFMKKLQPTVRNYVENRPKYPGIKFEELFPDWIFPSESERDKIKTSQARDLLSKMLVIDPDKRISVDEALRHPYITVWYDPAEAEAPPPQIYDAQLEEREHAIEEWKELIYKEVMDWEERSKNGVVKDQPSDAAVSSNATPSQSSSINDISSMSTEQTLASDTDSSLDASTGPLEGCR
Mitogen-activated protein kinase 8, sequence (P45983 whole entry): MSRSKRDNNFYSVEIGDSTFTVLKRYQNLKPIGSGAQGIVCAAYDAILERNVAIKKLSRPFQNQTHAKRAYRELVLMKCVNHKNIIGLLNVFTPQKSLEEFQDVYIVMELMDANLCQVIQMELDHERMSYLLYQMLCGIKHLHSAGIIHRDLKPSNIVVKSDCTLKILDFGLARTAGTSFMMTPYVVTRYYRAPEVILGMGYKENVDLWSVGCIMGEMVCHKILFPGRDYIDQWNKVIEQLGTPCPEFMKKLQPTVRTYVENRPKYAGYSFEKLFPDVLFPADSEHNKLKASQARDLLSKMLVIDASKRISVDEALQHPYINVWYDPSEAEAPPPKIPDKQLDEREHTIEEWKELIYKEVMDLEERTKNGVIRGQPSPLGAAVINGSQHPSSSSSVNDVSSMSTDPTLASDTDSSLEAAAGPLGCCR

Ki [2]	Ki [3]	Ki [4]	Ki [6]	Ki [7]	Ki [8]	Ki [9]	Ki [10]	Ki [11]	Ki [12]	Ki [13]	Ki [14]	Ki [15]	Ki [16]	Ki [17]	Ki [18]	Ki [19]	Ki [20]	Structure (SMILES)	Ki [1]	Ki [5]	also measured
> 5010 nM (inactive)	> 7940 nM (inactive)	> 1260 nM (inactive)	398 nM (active)	> 7940 nM (inactive)	> 1260 nM (inactive)	> 5010 nM (inactive)	25.1 nM (active)	501 nM (active)	10 nM (active)	> 2510 nM (inactive)	> 1580 nM (inactive)	> 10000 nM (inactive)	100 nM (active)	> 1580 nM (inactive)	> 2510 nM (inactive)	> 1580 nM (inactive)	> 398 nM (inactive)	NC(=O)c1cc(-c2ccnc(N)n2)[nH]c1-c1ccc(Cl)cc1Cl	50.1 nM (active)	398 nM (active)	pKi [1]: 7.3; pKi [5]: 6.4; pKi [6]: 6.4; pKi [10]: 7.6; pKi [11]: 6.3; pKi [12]: 8; pKi [16]: 7; Ki [21]: 10000 nM (active); pKi [21]: 5; Ki [22]: 6.31 nM (active); pKi [22]: 8.2; Ki [23]: > 3980 nM (inactive); Ki [24]: 3160 nM (active); Ki [25]: 6310 nM (active); pKi [25]: 5.2
12.6 nM (active)	501 nM (active)	> 1260 nM (inactive)	316 nM (active)	2000 nM (active)	501 nM (active)	1260 nM (active)	1260 nM (active)	398 nM (active)	7.94 nM (active)	> 3160 nM (inactive)	1000 nM (active)	> 10000 nM (inactive)	501 nM (active)	5.01 nM (active)	63.1 nM (active)	398 nM (active)	> 398 nM (inactive)	NC(COc1cncc(-c2ccc3c(c2)C(=Cc2ccco2)C(=O)N3)c1)Cc1c[nH]c2ccccc12 (configuration not stated)	–	20 nM (active)	Ki [26]: 6.31 nM (active); Ki [21]: 158 nM (active); Ki [22]: 63.1 nM (active); Ki [23]: > 3980 nM (inactive); Ki [24]: 501 nM (active); Ki [25]: 158 nM (active)
–	–	–	–	–	–	–	–	–	–	–	–	–	–	–	–	–	–	Cc1ccc(-n2nc(C(C)(C)C)cc2NC(=O)Nc2ccc(OCCN3CCOCC3)c3ccccc23)cc1 [DORAMAPIMOD]	> 3980 nM (inactive)	–	Ki [26]: > 3980 nM (inactive)
